Reference: US10183952B2, “Thienopyrroles as histone demethylase inhibitors” (ISTITUTO EUROPEO DI ONCOLOGIA S.R.L., priority 2014, dated 2019)
Structures can show the parent of a compound that is named as a salt.

How the values were obtained:
[1] = test system: human leukemia MV4-11 cells; assay: Cell growth, CellTiter-Fluor Cell Viability Assay, MV4-11; assay type: cell-based; conditions: 48 h incubation, read-out: IC50 against human leukemia MV4-11 cells
Excerpt: (§1) The CellTiter-Fluor™ Cell Viability Assay measures the conserved and constitutive protease activity within live cells and therefore acts as a marker for cell viability.
(§2) CellTiter-Flor® (Promega) is as a nonlytic, single-reagent-addition fluorescence assay that measures the relative number of living cells in a culture population after experimental manipulation. The CellTiter-Fluor™ Cell Viability Assay measures the conserved and constitutive protease activity within live cells and therefore acts as a marker for cell viability.
(§3) Human leukemia MV4-11 cells, (obtained from the Deutsche Sammlung von Mikroorganismen und Zellkulturen, ACC 102) or NB4 cells, (obtained from the Deutsche Sammlung von Mikroorganismen und Zellkulturen) in exponential growth, were incubated for 48 h with different concentrations of the inhibitors. After 48 h a volume of CellTiter-Fluor® Reagent equal to one fifth of volume of cell culture medium was added. The content was mixed and incubates for at least 90 min at 37° C. degree to obtain a stable signal. The fluorescence was recorded using an excitation wavelength of 360 nm and an emission at 535 nm. The IC50 was calculated using GraphPad Software.

[2] = target: human recombinant KDM1A/CoREST protein (Homo sapiens, UniProt O60341); assay: Assay of enzyme inhibition of KDM1A (LSD1), TR-FRET
Protocol: The intensity of the light emission is proportional to the level of biotinylated reaction product. The complex of human recombinant KDM1A/CoREST protein was produced in E. coli as separate proteins and co-purified as previously described.
Demethylase reaction was started by the addition of 50 nM histone H3K4 monomethylated.
The resulting mixture was incubated in the dark for 1 h at RT.

[3] = test system: human leukemia NB4 cells; assay: Cell growth, CellTiter-Fluor Cell Viability Assay, NB4; assay type: cell-based; conditions: NB-4, 48 h incubation, read-out: IC50 against human leukemia NB4 cells
Excerpt: as §1, §2, §3

Row | SMILES | IC50 [1] [µM] | IC50 [2] [µM] | IC50 [3] [µM]
1 | Cn1c(C(=O)Nc2ccccc2COc2ccc(OC3CCCNCC3)cc2)cc2sccc21 (stereo not shown) [Example 7, N-[2-[[4-(azepan-4-yloxy)phenoxy]methyl]phenyl]-4-methyl-thieno[3,2-b]pyrrole-5-carboxamide hydrochloride] | < 10 | < 10 | < 20
2 | CC(C)OCc1cccc(NC(=O)c2cc3sccc3n2C)c1COc1ccc(OC2CCNCC2)cc1 [Example 51, N-[3-(Isopropoxymethyl)-2-[[4-(4-piperidyloxy)phenoxy]methyl]phenyl]-4-methyl-thieno[3,2-b]pyrrole-5-carboxamide] | < 10 | < 10 | < 20
3 | Cn1c(C(=O)Nc2ccccc2COc2ccc(OC3CCNCC3)cc2)cc2sccc21 [Example 1, 4-Methyl-N-[2-[[4-(4-piperidyloxy)phenoxy]methyl]phenyl]thieno[3,2-b]pyrrole-5-carboxamide] | < 10 | < 10 | < 20
4 | Cn1c(C(=O)Nc2ccccc2COc2ccc(OC3CCNC3)cc2)cc2sccc21 (stereo not shown) [Example 16, 4-methyl-N-[2-[(4-pyrrolidin-3-yloxyphenoxy)methyl]phenyl]thieno[3,2-b]pyrrole-5-carboxamide] | < 10 | < 10 | < 20
5 | Cn1c(C(=O)Nc2ccccc2COc2ccc(OCC3CCNCC3)cc2)cc2sccc21 [Example 2, 4-methyl-N-[2-[[4-(4-piperidylmethoxy)phenoxy]methyl]phenyl]thieno-[3,2-b]pyrrole-5-carboxamide] | < 10 | < 10 | < 20
6 | Cn1c(C(=O)Nc2cccc(CN3CCOCC3)c2COc2ccc(OC3CCNCC3)cc2)cc2sccc21 [Example 54, 4-Methyl-N-[3-(morpholinomethyl)-2-[[4-(4-piperidyloxy)phenoxy]methyl]phenyl]thieno[3,2-b]pyrrole-5-carboxamide dihydrochloride] | < 10 | < 10 | < 20
7 | Cn1c(C(=O)Nc2ccccc2COc2cccc(OC3CCNCC3)c2)cc2ccsc21 [Example 64, 6-Methyl-N-[2-[[3-(4-piperidyloxy)phenoxy]methyl]phenyl]thieno[2,3-b]pyrrole-5-carboxamide] |  | < 10 | 
8 | Cn1c(C(=O)Nc2cccc(COc3ccc(O[C@@H]4C[C@H]5CC[C@@H](C4)N5)cc3)c2)cc2sccc21 [Example 25, N-[3-[[4-[[(1S,5R)-8-azabicyclo[3.2.1]octan-3-yl]oxy]phenoxy]methyl]phenyl]-4-methyl-thieno[3,2-b]pyrrole-5-carboxamide] |  | < 10 | 
9 | Cn1c(C(=O)Nc2ccccc2COc2ccc(OC3CCNCC3)cc2)cc2ccsc21 [Example 67, 6-Methyl-N-[2-[[4-(4-piperidyloxy)phenoxy]methyl]phenyl]thieno[2,3-b]pyrrole-5-carboxamide] |  | < 10 | 
10 | Cn1c(C(=O)Nc2cccc(COc3ccc(OCC4CCNCC4)cc3)c2)cc2sccc21 [Example 26, 4-methyl-N-[3-[[4-(4-piperidylmethoxy)phenoxy]methyl]phenyl]thieno[3,2-b]pyrrole-5-carboxamide] |  | < 10 | 
11 | CNCCCOc1ccc(OCc2ccccc2NC(=O)c2cc3sccc3n2C)cc1 [Example 31, 4-methyl-N-[2-[[4-(3-methylaminopropoxy)phenoxy]methyl]phenyl]thieno[3,2-b]pyrrole-5-carboxamide hydrochloride] |  | < 10 | 
12 | Cn1c(C(=O)Nc2cccc(COc3ccc(OC4CCCNCC4)cc3)c2)cc2sccc21 (stereo not shown) [Example 33, N-[3-[[4-(azepan-4-yloxy)phenoxy]methyl]phenyl]-4-methyl-thieno[3,2-b]pyrrole-5-carboxamide] |  | < 10 | 
13 | Cn1c(C(=O)Nc2ccccc2COc2ccc(O[C@@H]3C[C@H]4CC[C@@H](C3)N4)cc2)cc2sccc21 [Example 24, N-[2-[[4-[[(1S,5R)-8-azabicyclo[3.2.1]octan-3-yl]oxy]phenoxy]methyl]phenyl]-4-methyl-thieno[3,2-b]pyrrole-5-carboxamide] |  | < 10 | 
